Laboratory results published in patent publication US5070210A, “Novel ketenimines as intermediates for insecticides” (ICI Americas Inc., priority 1990, dated 1991).

Columns and labels:
Assay type in all cases: in vivo
[1] = test system: Housefly [Musca domestica]; experiment: Housefly insecticidal test; details: μg per 25 female flies; mortality after 48 hours
Summary of the method: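 Dose range started at 100 μg per 25 female flies and went downward. Insects (1-2 days old) contacted a dried acetone/peanut-oil deposit in dishes; LC50 values come from dosage-mortality curves at 48 h.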

[2] = test system: Tobacco Budworm [Heliothis virescens (Fabricius)] eggs; experiment: Tobacco budworm egg test; details: 2-day old eggs, percent in solution
Summary of the method: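 LC50 values (percent test compound in the dip solution) were calculated from dosage-mortality curves. Egg patches, 2 days old, were dipped in acetone solutions at concentrations from 0.1% downward and held at 78° F on rearing medium until control larvae hatched and fed.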

[3] = test system: Cabbage Looper [Trichoplusia ni (Hubner)]; experiment: Cabbage looper insecticidal test; details: second-instar larvae, percent in solution; 3-5 days
Summary of the method: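 Leaf dip, squash cotyledons, 50-50 acetone-water, top dose 0.1% and lower. 5 second-instar larvae/dish, moist filter paper, high-humidity chamber. Mortality at 3-5 d; LC50 (% in solution) from dosage-mortality curves.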

[4] = test system: Aster Leafhopper [Macrosteles fascifrens (Stal)]; experiment: Aster leafhopper insecticidal test; details: adults/nymphs, percent in solution; 48 hours
Method: The compounds in Tables 1 and 2 above were tested for insecticidal activity using the following testing procedures. LC50 values, based on the results of these tests and calculated according to dosage-mortality curves, are expressed in Table 3.
Aster Leafhopper [Macrosteles fascifrens (Stal)]
Oat seedlings (Avena sp) were grown in a commercial potting soil in cups. When the plants were approximately 10 cm tall they were thinned to three plants per cup and dipped for 2-3 seconds in 50-50 acetone-water solutions of the test compounds. When the plants had dried, a clear plastic tube was placed over them and the bottom end pressed into the cup. Ten aster leafhopper adults/nymphs were then placed in each tube and the tops of the tubes covered with white organdy cloth. Mortality counts were made after 48 hours. Test concentrations ranged from 0.05% down to that at which 50% mortality occurred. The LC50 values are expressed below in Table 3 under the heading "LH" in terms of the percent of the test compound in the solution.

[5] = test system: Maize weevil [Sitophilus Zeamais (Motschulsky)]; experiment: Maize weevil insecticidal test; details: adult weevils, percent in solution; 48 hours
Summary of the method: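 LC50, in percent of compound in solution, was derived from dosage-mortality curves after 48 h at about 25 °C. Ten adult weevils per container fed on four corn seeds briefly immersed in acetone:water (50:50) solutions of up to 0.01% and dried.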

| Structure (SMILES) | LC50, HF [1] | LC50, TBW, E (TBW-E) [2] | LC50, CL [3] | LC50, LH [4] | LC50, MW [5] |
| --- | --- | --- | --- | --- | --- |
| CC(C)CC(=Nc1cc(Cl)cc(Cl)c1)OCc1cccc(Oc2ccccc2)c1 [Compound 10] | > 100 µg | > 0.1% | 0.01% | > 0.05% |  |
| CC(C)C(=Nc1cc(Cl)cc(Cl)c1)OCc1cccc(Oc2ccccc2)c1 [Compound 16] | 20 µg | 0.04% | 0.004% | 0.0005% |  |
| CCCc1ccc(N=C(OCc2ccc(F)c(Oc3ccc(F)cc3)c2)C(C)C)cc1 [Compound 440] | > 100 µg | < 0.1% | 0.002% |  | > 0.01% |
| CC(C)C(=Nc1ccc(Cl)c(F)c1)OCc1ccc(F)c(Oc2ccc(F)cc2)c1 [Compound 441] | < 100 µg | 0.016% | 0.000025% |  | 0.006% |
| C=C(C)C(=Nc1ccc(C(F)(F)F)cc1)OCc1cccc(Oc2ccc(F)cc2)c1 [Compound 442] | < 100 µg | 0.035% | 0.0007% |  | > 0.01% |
| Fc1ccc(COC(=Nc2ccc(C(F)(F)F)cc2)C2CC2)cc1Oc1ccccc1 [Compound 443] | < 100 µg | 0.017% | 0.00015% |  | < 0.01% |
| Fc1ccc(COC(=Nc2ccc(C(F)(F)F)cc2)C2CC2)cc1Oc1ccc(Cl)cc1 [Compound 444] | > 100 µg | 0.023% | 0.00015% |  | > 0.01% |
| CC(C)C(=Nc1ccc(C(F)(F)F)cc1[N+](=O)[O-])OCc1ccc(F)c(Oc2ccccc2)c1 [Compound 445] | < 100 µg | > 0.1% | 0.00045% |  | > 0.01% |
| CCOc1ccc(N=C(OCc2cccc(Oc3ccc(F)cc3)c2)C(C)C)cc1Br [Compound 446] | > 100 µg | < 0.1% | 0.0008% |  | > 0.01% |
| CC(C)C(=Nc1ccc(F)c(I)c1)OCc1cccc(Oc2ccc(F)cc2)c1 [Compound 449] | 13 µg | 0.025% | 0.0001% |  | 0.0075% |
| CC(C)C(=Nc1cccc(C(F)(F)F)c1)OC(C)c1cccc(Oc2ccccc2)c1 (stereo not shown) [Compound 459] | > 100 µg | 0.1% | 0.008% |  | > 0.01% |
| CC(C)C(=Nc1ccc(F)c(Cl)c1)OCc1cccc(Oc2c(F)c(F)c(F)c(F)c2F)c1 [Compound 460] | > 100 µg | > 0.1% | 0.02% |  | > 0.01% |
| CC(C)C(=Nc1ccc(I)c(Cl)c1)OCc1cccc(Oc2ccc(Cl)cc2)n1 [Compound 471] | < 100 µg | 0.018% | 0.00018% |  | > 0.01% |
| CC(C)C(=Nc1cccc(C(F)(F)F)c1)OCc1cccc(Oc2ccc(Cl)cc2)n1 [Compound 477] | 20 µg | > 0.1% | 0.0003% |  | 0.0076% |
| CC(C)C(=Nc1ccc(Br)cc1)OCc1coc(Cc2ccccc2)c1 [Compound 478] | 15 µg | > 0.1% | 0.0037% |  | > 0.01% |
| CC(C)C(=Nc1cccc(C(F)(F)F)c1)OCc1coc(Cc2ccccc2)c1 [Compound 482] | 36 µg | > 0.1% | 0.01% |  | > 0.01% |
| CC(C)C(=Nc1ccc2c(c1)OCO2)OCc1coc(Cc2ccccc2)c1 [Compound 483] | 6 µg | 0.05% | 0.001% |  | > 0.01% |
| CC(C)C(=Nc1ccc(F)cc1F)OCc1coc(Cc2ccccc2)c1 [Compound 486] | 15 µg | > 0.1% | > 0.1% |  | > 0.01% |
| COCc1c(F)c(F)c(COC(=Nc2cccc(C(F)(F)F)c2)C(C)C)c(F)c1F [Compound 503] | 21 µg | 0.08% | 0.001% |  | > 0.01% |

| Structure (SMILES) | LC50, HF [1] | LC50, TBW, E (TBW-E) [2] | LC50, CL [3] | LC50, LH [4] | LC50, MW [5] |
| --- | --- | --- | --- | --- | --- |
| CC(C)C(=Nc1ccc(C(F)(F)F)cc1)OCc1cccc(Oc2ccccc2)n1 [Compound 504] | < 100 µg | 0.05% | 0.00025% |  | 0.01% |
| COCc1c(F)c(F)c(COC(=Nc2ccc(F)c(Cl)c2)C(C)C)c(F)c1F [Compound 505] | 14 µg | 0.09% | 0.0024% |  | > 0.01% |
| CC(C)C(=Nc1cccc(C(F)(F)F)c1)OCc1cc(Oc2ccccc2)ccn1 [Compound 506] | 40 µg | > 0.1% | 0.005% |  | > 0.01% |
| CC(C)C(=Nc1cccc(C(F)(F)F)c1)OCc1ccnc(Oc2ccccc2)c1 [Compound 507] | 93 µg | > 0.1% | 0.002% |  | > 0.01% |
| CC(C)C(=Nc1cccc(C(F)(F)F)c1)OCc1cc(Oc2ccc(Cl)cc2)ccn1 [Compound 509] | 79 µg | > 0.1% | 0.0075% |  | > 0.01% |
| CC(C)C(=Nc1ccc(F)c(Cl)c1)OCc1ccnc(Oc2ccccc2)c1 [Compound 510] | 54 µg | > 0.1% | 0.017% |  | > 0.01% |
| CC(C)C(=Nc1ccc(F)c(Cl)c1)OCc1ccnc(Oc2ccc(F)cc2)c1 [Compound 511] | 89 µg | > 0.1% | 0.0012% |  | > 0.01% |
| CC(C)C(=Nc1ccc(OC(F)(F)F)cc1)OCc1cccc(Oc2ccccc2)n1 [Compound 550] | < 100 µg | > 0.1% | 0.00034% |  | > 0.01% |
| CC(C)C(=Nc1ccc(Br)c(F)c1)OCc1cccc(Oc2ccc(Cl)cc2)n1 [Compound 551] | < 100 µg | 0.035% | 0.00075% |  | > 0.01% |
| CCc1ccc(N=C(OCc2cccc(Oc3ccc(Cl)cc3)n2)C(C)C)cc1 [Compound 552] | > 100 µg | > 0.1% | 0.0016% |  | > 0.01% |
| CC(C)C(=Nc1ccc(Cl)cc1)OCc1cccc(Oc2ccccc2)n1 [Compound 553] | < 100 µg | 0.1% | < 0.1% |  | > 0.01% |
| CC(C)C(=Nc1ccc(Cl)cc1)OCc1cccc(Oc2ccc(Cl)cc2)n1 [Compound 554] | > 100 µg | 0.04% | 0.00075% |  | > 0.01% |
| CC(C)C(=Nc1ccc(Cl)c(C(F)(F)F)c1)OCc1cccc(Oc2ccccc2)n1 [Compound 555] | < 100 µg | > 0.1% | 0.002% |  | > 0.01% |
| CC(C)C(=Nc1ccc2c(c1)OC(F)(F)O2)OCc1cccc(Oc2ccccc2)n1 [Compound 556] | < 100 µg | 0.04% | 0.0007% |  | > 0.01% |
| CC(C)C(=Nc1cccc(Br)c1)OCc1cccc(Oc2ccc(Cl)cc2)n1 [Compound 557] | < 100 µg | > 0.1% | 0.0004% |  | > 0.01% |
| CC(C)C(=Nc1ccc(F)c(Br)c1)OCc1cccc(Oc2ccccc2)n1 [Compound 558] | < 100 µg | > 0.1% | 0.00045% |  | > 0.01% |
| CC(C)C(=Nc1ccc(F)c(F)c1)OCc1cccc(Oc2ccc(Cl)cc2)n1 [Compound 559] | < 100 µg | 0.017% | 0.00027% |  | > 0.01% |
| C=C(C)C(=Nc1ccc(C(F)(F)F)cc1)OCc1cccc(Oc2ccc(Cl)cc2)n1 [Compound 560] | < 100 µg | < 0.1% | 0.0015% |  | > 0.01% |
